In series [1] the test system is diet-induced obese (DIO) mouse. As to the kind of experiment: Oral glucose tolerance test (OGTT) in diet-induced obese mice. The format is in vivo. The protocol:
To assess obesity and insulin resistance, a diet-induced obesity mouse model was used.
Male C57BL6/J mice were continuously provided with high-fat diet (D12451, 45% kcal as fat; Research Diets, New Jersey, USA) and filtered tap water ad libitum for the duration of the study. From day 0, mice were administered vehicle i.p. BID, USP19 inhibitor (ADC-141) i.p. BID at 5 mg/kg or 25 mg/kg, or positive control liraglutide 0.1 mg/kg s.c. BID. Mice were allocated to treatment groups to balance the groups on the basis of body weight, food and water intake prior to the start of treatment.
Body weight was measured daily. On Day 13, body composition was assessed by DEXA. On Day 15, fasting glucose and insulin levels were measured before and during an oral glucose tolerance test (OGTT) to assess improvements in glucose control. The OGTT was performed following an overnight fast. […] An OGTT was performed the following morning (approx. 16h post fast). Mice were dosed with vehicle or test compound (starting at 08.45) to a timed schedule 30 minutes prior to the administration of the glucose challenge (2.0 g/kg po). Blood samples were taken immediately prior to dosing (B1), immediately prior to glucose administration (B2) and 15, 30, 60 and 120 minutes after glucose administration.

Another series relates to male C57bl/6 mice. As to the kind of experiment: Sciatic nerve denervation muscle wasting model. The conditions noted are these: 75 mg/kg IP twice daily, vs vehicle. The series is classed as in vivo. As for the experimental part:
To induce muscle wasting, a 1 cm segment of the sciatic nerve in the thigh was removed from mice (male C57bl/6 mice at 8-10 weeks of age; n=10 per group) under isoflurane anaesthesia and analgesia with carprofen. A sham operation was carried out in the opposite leg as a control.
Mice were randomised into Vehicle or Test groups, with all animals weighed to ensure a similar mean weight in each group. A USP19 inhibitory compound (ADC-141, which is 1-(((S)-7-((R)-3-Cyclohexyl-2-methylpropanoyl)-10-hydroxy-7-azaspiro[4.5]decan-10-yl)methyl)-4-phenyl-5-(piperazine-1-carbonyl)pyridin-2(1H)-one, corresponding to exemplary compound 212 provided herein) at 75 mg/kg or Vehicle was administered IP twice daily starting from the evening post-operation.
Mice were sacrificed 14 days later. Fat pads, liver, gastrocnemius and tibialis anterior muscles were harvested. Tissue mass were measured in both groups.

For a further series, the target named is T1, USP19 (Mus musculus, UniProt Q3UJD6).
T1 construct: endogenous in cells
T1 sequence (Q3UJD6 1-1360): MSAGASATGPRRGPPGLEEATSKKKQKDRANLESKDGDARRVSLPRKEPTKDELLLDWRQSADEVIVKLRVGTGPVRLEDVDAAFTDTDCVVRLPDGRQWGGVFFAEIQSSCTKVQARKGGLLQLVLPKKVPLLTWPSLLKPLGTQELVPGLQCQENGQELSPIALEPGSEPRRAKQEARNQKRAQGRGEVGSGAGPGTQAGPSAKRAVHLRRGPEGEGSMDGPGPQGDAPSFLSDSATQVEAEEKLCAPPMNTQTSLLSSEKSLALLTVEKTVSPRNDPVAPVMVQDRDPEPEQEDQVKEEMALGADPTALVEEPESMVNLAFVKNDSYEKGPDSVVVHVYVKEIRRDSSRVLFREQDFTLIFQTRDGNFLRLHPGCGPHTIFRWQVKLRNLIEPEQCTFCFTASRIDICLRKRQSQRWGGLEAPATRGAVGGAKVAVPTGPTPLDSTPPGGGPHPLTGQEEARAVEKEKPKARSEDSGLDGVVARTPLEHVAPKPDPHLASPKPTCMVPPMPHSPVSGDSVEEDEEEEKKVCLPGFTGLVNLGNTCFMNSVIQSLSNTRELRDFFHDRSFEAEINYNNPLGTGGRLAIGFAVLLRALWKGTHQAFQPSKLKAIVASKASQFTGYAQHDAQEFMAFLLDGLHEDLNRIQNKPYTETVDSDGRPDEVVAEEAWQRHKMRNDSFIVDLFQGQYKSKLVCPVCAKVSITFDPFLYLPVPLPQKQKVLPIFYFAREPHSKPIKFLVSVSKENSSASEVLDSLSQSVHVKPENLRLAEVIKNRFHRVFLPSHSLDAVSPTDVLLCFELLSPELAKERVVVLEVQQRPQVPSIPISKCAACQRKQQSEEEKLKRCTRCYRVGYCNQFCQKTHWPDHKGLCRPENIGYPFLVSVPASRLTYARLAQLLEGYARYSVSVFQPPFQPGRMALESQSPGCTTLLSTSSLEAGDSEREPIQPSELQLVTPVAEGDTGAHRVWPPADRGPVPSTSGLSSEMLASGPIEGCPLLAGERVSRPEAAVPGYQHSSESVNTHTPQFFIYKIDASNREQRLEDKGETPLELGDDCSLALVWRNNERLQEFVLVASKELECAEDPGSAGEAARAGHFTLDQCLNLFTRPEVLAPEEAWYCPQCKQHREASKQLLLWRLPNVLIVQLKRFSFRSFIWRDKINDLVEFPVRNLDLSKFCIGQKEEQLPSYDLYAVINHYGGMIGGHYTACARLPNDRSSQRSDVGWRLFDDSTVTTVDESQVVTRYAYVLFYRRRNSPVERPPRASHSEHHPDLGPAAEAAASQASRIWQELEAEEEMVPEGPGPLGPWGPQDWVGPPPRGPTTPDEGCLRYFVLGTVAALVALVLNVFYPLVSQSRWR
The series can be described thus: Cell target engagement, mouse skeletal muscle cell line. The format is cell-based. As for the experimental part: Cells from a breast cancer cell line, a neuroblastoma cell line and a mouse skeletal muscle cell line were treated with a USP19 inhibitor compound (ADC-141, corresponding to Example 212 provided herein) for 2 hrs, lysed (lysis buffer: 50 mM Tris pH 7.4; 150 mM NaCl; 5 mM MgCl2; 0.5 mM EDTA; 0.5% NP40; 10% Glycerol; 2 mM DTT) and Ubiquitin-propargylamine (Ub-PA; UbiQ) or Ubiquitin-vinyl methyl ester (Ub-VME; Almac Sciences Scotland Limited) was then added. Samples were analysed by western blotting probing for USP19 (EC50 determined by densitometry).

SMILES strings stand for the structures. “Also recorded” adds a separate entry of the source.

Regarding `C[C@H](CC1CCCCC1)C(=O)N1CC[C@@](O)(Cn2cc(C(=O)N3CCNCC3)c(-c3ccccc3)cc2=O)C2(CCCC2)C1` [ADC-141, 1-(((S)-7-((R)-3-Cyclohexyl-2-methylpropanoyl)-10-hydroxy-7-azaspiro[4.5]decan-10-yl)methyl)-4-phenyl-5-(piperazine-1-carbonyl)pyridin-2(1H)-one], the “insulin AUC” value in series [1] (0-60 and 0-120 minutes, 25 mg/kg ip bid) is “reduced”. Moreover, the “glucose AUCB2” value in series [1] (0-120 minutes only, 25 mg/kg ip bid, vs vehicle) is listed as “significantly reduced”. Further, the “glucose AUC” value in series [1] (25 mg/kg ip bid, vs vehicle) was “significantly reduced”. Moreover, the plasma insulin entry in series [1] (30, 60 and 120 minutes post-glucose, 25 mg/kg ip bid) was “reduced”. Besides, the plasma glucose entry in series [1] (all time points pre- and post-glucose, 25 mg/kg ip bid, vs vehicle) is recorded as “significantly reduced”. For the same compound, in series [1] (following 2 weeks of treatment), the fasting plasma glucose entry was “effective at decreasing”. In the series with male C57bl/6 mice (2 weeks), the liver mass entry is reported as “increase in liver mass” and the “mass of the epididymal fat pad” value is given as “significant reduction in fat mass; also recorded: significantly smaller fat pads”. Also, in the series on male C57bl/6 mice (denervated limb, 14 days), the “loss of muscle mass in the tibialis anterior muscle” value is “significantly lower loss of muscle mass” and the “muscle wasting in the gastrocnemius muscle” value is recorded as “reduced in the gastrocnemius muscle (FIG. 2), though the trend did not reach significance”. The cell permeability result on USP19 is reported as “good cell permeability”. Besides, the “EC50 (USP19 target engagement, densitometry)” value at USP19 (2 hrs treatment, Ub-PA or Ub-VME probe, western blot) is given as “low nanomolar”.

For the origin of these results see patent US20220016115A1, “USP19 INHIBITORS FOR USE IN THERAPY” (ALMAC DISCOVERY LIMITED, priority 2018, published 2022).
